# Laboratory results from PubChem BioAssay AID2060886 (Molecular Pharmacology Branch, DTP, NCI, 2025).
# Test system: 653999-131-R-J2-PDC complex spheroids, growth inhibition
# Assay: Anticancer human tumor 653999-131-R-J2-PDC patient-derived lung adenocarcinoma cell line growth inhibition [RAS]
# Details: for IC50: curve of first compound; for viability, T/C: stronger effect = lower value
# Outline: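 Agents were tested in combination matrices in half-log decrements from a top concentration at or near clinical Cmax (10 microM if undetermined). Targets were multi-cell spheroids of tumour lines plus HUVEC and MSC stromal cells.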
# [1] = second compound 0.00316 µM, first compound 0.0316 µM
# [2] = second compound 0.00316 µM, first compound 0.1 µM
# [3] = second compound 0.00316 µM, first compound 0.316 µM
# [4] = second compound 0.00316 µM, first compound 1 µM
# [5] = second compound 0.00316 µM, first compound 3.16 µM
# [6] = second compound 0.00316 µM, first compound 10 µM
# [7] = second compound 0.01 µM, first compound 0.0316 µM
# [8] = second compound 0.01 µM, first compound 0.1 µM
# [9] = second compound 0.01 µM, first compound 0.316 µM
# [10] = second compound 0.01 µM, first compound 1 µM
# [11] = second compound 0.01 µM, first compound 3.16 µM
# [12] = second compound 0.01 µM, first compound 10 µM
# [13] = second compound 0.0316 µM, first compound 0.0316 µM
# [14] = second compound 0.0316 µM, first compound 0.1 µM
# [15] = second compound 0.0316 µM, first compound 0.316 µM
# [16] = second compound 0.0316 µM, first compound 1 µM
# [17] = second compound 0.0316 µM, first compound 3.16 µM
# [18] = second compound 0.0316 µM, first compound 10 µM
# [19] = second compound 0.1 µM, first compound 0.0316 µM
# [20] = second compound 0.1 µM, first compound 0.1 µM
# [21] = second compound 0.1 µM, first compound 0.316 µM
# [22] = second compound 0.1 µM, first compound 1 µM
# [23] = second compound 0.1 µM, first compound 3.16 µM
# [24] = second compound 0.1 µM, first compound 10 µM
# [25] = second compound 0.316 µM, first compound 0.0316 µM
# [26] = second compound 0.316 µM, first compound 0.1 µM
# [27] = second compound 0.316 µM, first compound 0.316 µM
# [28] = second compound 0.316 µM, first compound 1 µM
# [29] = second compound 0.316 µM, first compound 3.16 µM
# [30] = second compound 0.316 µM, first compound 10 µM
# [31] = second compound 1 µM, first compound 0.0316 µM
# [32] = second compound 1 µM, first compound 0.1 µM
# [33] = second compound 1 µM, first compound 0.316 µM
# [34] = second compound 1 µM, first compound 1 µM
# [35] = second compound 1 µM, first compound 3.16 µM
# [36] = second compound 1 µM, first compound 10 µM
# 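Also: spheroids exposed to the agents for seven days before the readout.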
smiles,measurement,setting,value
CC1(O)CCCC1n1c(=O)c(C(F)F)cc2cnc(NC3CCN(S(C)(=O)=O)CC3)nc21 (centres undefined) + C=CC(=O)N1CCN(c2nc(OCC3CCCN3C)nc3c(F)c(-c4nc(N)cc(C)c4C(F)(F)F)c(Cl)cc23)C(C)C1,IC50,second compound 0.00316 µM,5.56 µM
same,IC50,second compound 0.01 µM,5.34 µM
same,IC50,second compound 0.0316 µM,5.2 µM
same,IC50,second compound 0.1 µM,5.59 µM
same,IC50,second compound 0.316 µM,5.13 µM
same,IC50,second compound 1 µM,6.26 µM
same,"viability, T/C",[1],74.3%
same,"viability, T/C",[2],63.4%
same,"viability, T/C",[3],57.5%
same,"viability, T/C",[4],63.5%
same,"viability, T/C",[5],75.9%
same,"viability, T/C",[6],32.5%
same,"viability, T/C",[7],82.5%
same,"viability, T/C",[8],65.5%
same,"viability, T/C",[9],56.6%
same,"viability, T/C",[10],71.9%
same,"viability, T/C",[11],68.8%
same,"viability, T/C",[12],27.5%
same,"viability, T/C",[13],77.6%
same,"viability, T/C",[14],57.2%
same,"viability, T/C",[15],63.4%
same,"viability, T/C",[16],63.2%
same,"viability, T/C",[17],68.5%
same,"viability, T/C",[18],29%
same,"viability, T/C",[19],78.4%
same,"viability, T/C",[20],71.7%
same,"viability, T/C",[21],54.4%
same,"viability, T/C",[22],64.7%
same,"viability, T/C",[23],76.3%
same,"viability, T/C",[24],30.7%
same,"viability, T/C",[25],86.3%
same,"viability, T/C",[26],65.6%
same,"viability, T/C",[27],67.2%
same,"viability, T/C",[28],69.5%
same,"viability, T/C",[29],66.4%
same,"viability, T/C",[30],27.8%
same,"viability, T/C",[31],78.3%
same,"viability, T/C",[32],55.9%
same,"viability, T/C",[33],71%
same,"viability, T/C",[34],64.2%
same,"viability, T/C",[35],68.4%
same,"viability, T/C",[36],38.2%
CCC(CC)c1cc(NC2CCC(N)C2)n2nccc2n1 (centres undefined) + C=CC(=O)N1CCN(c2nc(OCC3CCCN3C)nc3c(F)c(-c4nc(N)cc(C)c4C(F)(F)F)c(Cl)cc23)C(C)C1,IC50,second compound 0.00316 µM,2.05 µM
same,IC50,second compound 0.01 µM,1.97 µM
same,IC50,second compound 0.0316 µM,2.03 µM
same,IC50,second compound 0.1 µM,2.12 µM
same,IC50,second compound 0.316 µM,1.91 µM
same,IC50,second compound 1 µM,2.1 µM
same,"viability, T/C",[1],107%
same,"viability, T/C",[2],109%
same,"viability, T/C",[3],95.5%
same,"viability, T/C",[4],101%
same,"viability, T/C",[5],16.5%
same,"viability, T/C",[6],21.7%
same,"viability, T/C",[7],91.2%
same,"viability, T/C",[8],92.2%
same,"viability, T/C",[9],104%
same,"viability, T/C",[10],99%
same,"viability, T/C",[11],16.9%
same,"viability, T/C",[12],18.1%
same,"viability, T/C",[13],93.3%
same,"viability, T/C",[14],117%
same,"viability, T/C",[15],87.4%
same,"viability, T/C",[16],94.3%
same,"viability, T/C",[17],18.2%
same,"viability, T/C",[18],26%
same,"viability, T/C",[19],99.9%
same,"viability, T/C",[20],95.4%
same,"viability, T/C",[21],112%
same,"viability, T/C",[22],113%
same,"viability, T/C",[23],16.1%
same,"viability, T/C",[24],25.5%
same,"viability, T/C",[25],123%
same,"viability, T/C",[26],100%
same,"viability, T/C",[27],93.7%
same,"viability, T/C",[28],89.4%
same,"viability, T/C",[29],14.8%
same,"viability, T/C",[30],23.8%
same,"viability, T/C",[31],114%
same,"viability, T/C",[32],97.2%
same,"viability, T/C",[33],111%
same,"viability, T/C",[34],116%
same,"viability, T/C",[35],13.8%
same,"viability, T/C",[36],20.9%
